From ChEMBL document CHEMBL1201862, “PubChem BioAssay data set” (2004)
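1) Cells in 96-well plates. 2) Compound, 48 h, 5 concentrations. 3) Linear interpolation between surrounding doses. 4) Unreached endpoint = highest concentration. GI50: concentration for 50% inhibition of growth.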 Calls of active or inactive are those of the source. Cut-off read from the data, not from the text of the source: active = GI50 up to about 1.1 µM and inactive = higher.

What was measured:
Assay in all cases: NCI-60 cell line screen, 48 h
ACHN = test system: ACHN
BT-549 = test system: BT-549
HCC 2998 = test system: HCC 2998
HL-60 = test system: HL-60
IGROV-1 = test system: IGROV-1
KM12 = test system: KM12
MDA-N = test system: MDA-N
Malme-3M = test system: Malme-3M
NCI-H23 = test system: NCI-H23
PC-3 = test system: PC-3
SF-268 = test system: SF-268
SK-MEL-2 = test system: SK-MEL-2
SK-MEL-5 = test system: SK-MEL-5
SN12C = test system: SN12C
T47D = test system: T47D
TK-10 = test system: TK-10
UACC-257 = test system: UACC-257
UACC-62 = test system: UACC-62
NCI-H522 = test system: NCI-H522

| Compound | GI50 (ACHN) | GI50 (BT-549) | GI50 (HCC 2998) | GI50 (HL-60) | GI50 (IGROV-1) | GI50 (KM12) | GI50 (MDA-N) | GI50 (Malme-3M) | GI50 (NCI-H23) | GI50 (PC-3) | GI50 (SF-268) | GI50 (SK-MEL-2) | GI50 (SK-MEL-5) | GI50 (SN12C) | GI50 (T47D) | GI50 (TK-10) | GI50 (UACC-257) | GI50 (UACC-62) | GI50 (NCI-H522) |
| --- | --- | --- | --- | --- | --- | --- | --- | --- | --- | --- | --- | --- | --- | --- | --- | --- | --- | --- | --- |
| C=CCCC1(CC(Sc2ccccc2)P(=O)(c2ccccc2)c2ccccc2)OCCO1 (stereo unspecified) | > 10 µM (inactive) | > 10 µM (inactive) | > 10 µM (inactive) | > 10 µM (inactive) | > 10 µM (inactive) | > 10 µM (inactive) | > 10 µM (inactive) | > 10 µM (inactive) | > 10 µM (inactive) | > 10 µM (inactive) | > 10 µM (inactive) | > 10 µM (inactive) | > 10 µM (inactive) | > 10 µM (inactive) | > 10 µM (inactive) | > 10 µM (inactive) | > 10 µM (inactive) | > 10 µM (inactive) |  |
| CC(C)(C)C1CCC2c3c([nH]c4ccccc34)C3C(=O)N(c4ccc5c(c4)C(=O)c4ccccc4C5=O)C(=O)C3C2C1 (stereo unspecified) | > 100 µM (inactive) | > 100 µM (inactive) | > 100 µM (inactive) | > 100 µM (inactive) | > 100 µM (inactive) | > 100 µM (inactive) | > 100 µM (inactive) | > 100 µM (inactive) | > 100 µM (inactive) | > 100 µM (inactive) | > 100 µM (inactive) | > 100 µM (inactive) | > 100 µM (inactive) | > 100 µM (inactive) | > 100 µM (inactive) | > 100 µM (inactive) | > 100 µM (inactive) | > 100 µM (inactive) | > 100 µM (inactive) |
| O=C(NNC(=S)NCc1ccccc1)c1csc(NC(=S)NC2CCCCC2)n1 | 38.2 µM (inactive) | 36.9 µM (inactive) | 37.3 µM (inactive) | > 100 µM (inactive) | 31.3 µM (inactive) | 49.9 µM (inactive) | 28.9 µM (inactive) | 38.6 µM (inactive) | 43 µM (inactive) | 37.3 µM (inactive) | 27.6 µM (inactive) | 27 µM (inactive) | 13.8 µM (inactive) | 34.4 µM (inactive) | 30 µM (inactive) | 42.5 µM (inactive) | 18.6 µM (inactive) | 40.1 µM (inactive) | 35.1 µM (inactive) |
| CCCCN1C(=O)c2c(Br)sc(Br)c2C1=O | 47.8 µM (inactive) | 61.9 µM (inactive) | 33.8 µM (inactive) |  | 31.6 µM (inactive) | 25.1 µM (inactive) | 33 µM (inactive) | 33.2 µM (inactive) | 44.3 µM (inactive) | 28.8 µM (inactive) | 31.8 µM (inactive) | 46 µM (inactive) | 39.5 µM (inactive) | 34.5 µM (inactive) | 57.7 µM (inactive) | 60 µM (inactive) | 30.4 µM (inactive) | 32.4 µM (inactive) | 0.391 µM (active) |
| CCCCCCCCCCCCCCCCCCOC(COP(=O)(O)OCC1OC(n2cc(F)c(=O)[nH]c2=O)CC1O)COP(=O)(O)OCC1OC(n2ccc(N)nc2=O)C(O)C1O (stereo unspecified) | 0.474 µM (active) | 18.5 µM (inactive) | 0.419 µM (active) | 3.66 µM (inactive) | 13.6 µM (inactive) | 59.2 µM (inactive) | > 95.5 µM (inactive) | > 68.9 µM (inactive) | 7.98 µM (inactive) | 15.6 µM (inactive) | 0.536 µM (active) | > 67 µM (inactive) | > 73.5 µM (inactive) | 23.9 µM (inactive) | > 100 µM (inactive) | 33.2 µM (inactive) | > 79.3 µM (inactive) | 2.56 µM (inactive) | > 40.2 µM (inactive) |
| CC(=O)OC(Cc1cc(C=C(C(F)(F)F)C(F)(F)F)cc(C)n1)(C(F)(F)F)C(F)(F)F | 1.39 µM (inactive) | 1.77 µM (inactive) | 5.2 µM (inactive) | 0.124 µM (active) | 1.1 µM (active) | 1.55 µM (inactive) | 1.55 µM (inactive) | 2.48 µM (inactive) | 1.45 µM (inactive) | 1.77 µM (inactive) | 1.74 µM (inactive) | 2.1 µM (inactive) | 1.49 µM (inactive) | 1.44 µM (inactive) | 1.9 µM (inactive) | 2.8 µM (inactive) | 1.74 µM (inactive) | 1.68 µM (inactive) | 2.01 µM (inactive) |
| CN(CCN1CCCC1)C1CCc2cc(Cl)c(Cl)cc2C1 (stereo unspecified) | 16.9 µM (inactive) | 14.9 µM (inactive) | 5.47 µM (inactive) | 12.6 µM (inactive) | 15.6 µM (inactive) | 20.3 µM (inactive) | 9.2 µM (inactive) | 18.9 µM (inactive) | 15 µM (inactive) | 20 µM (inactive) | 17.1 µM (inactive) | 17.9 µM (inactive) | 11.1 µM (inactive) | 15.5 µM (inactive) | 6.37 µM (inactive) | 17.1 µM (inactive) | 16.4 µM (inactive) | 5.71 µM (inactive) | 17.2 µM (inactive) |
